# From the CheMixHub ionic liquid set
# ± gives the uncertainty stated by the source.
# Test: xn = mol fraction of the nth substance listed
# [1] = 293.15 K, 100 kPa, frequency 0.01 MHz, x1 = 1
# [2] = 298.15 K, 100 kPa, frequency 0.01 MHz, x1 = 1
# [3] = 303.15 K, 100 kPa, frequency 0.01 MHz, x1 = 1
# [4] = 308.15 K, 100 kPa, frequency 0.01 MHz, x1 = 1
# [5] = 313.15 K, 100 kPa, frequency 0.01 MHz, x1 = 1
# [6] = 318.15 K, 100 kPa, frequency 0.01 MHz, x1 = 1
# [7] = 323.15 K, 100 kPa, frequency 0.01 MHz, x1 = 1
smiles,measurement,setting,value
CCCC[n+]1ccn(C)c1.F[P-](F)(F)(F)(F)F + C1CCOC1,viscosity,"298.15 K, 101 kPa, x2 = 0.195",91 ± 15 mPa·s
CC#N + C=C[n+]1ccn(CC(N)=O)c1.O=S(=O)([N-]S(=O)(=O)C(F)(F)F)C(F)(F)F,viscosity,"323.15 K, 100 kPa, x2 = 0",0.262 ± 0.053 mPa·s
CCCC[n+]1ccn(C)c1.O=S(=O)([N-]S(=O)(=O)C(F)(F)F)C(F)(F)F + CC1CC(=O)O1,electrical conductivity,[1],0.337 ± 0.013 S/m
same,electrical conductivity,[2],0.4 ± 0.016 S/m
same,electrical conductivity,[3],0.472 ± 0.019 S/m
same,electrical conductivity,[4],0.552 ± 0.022 S/m
same,electrical conductivity,[5],0.64 ± 0.026 S/m
same,electrical conductivity,[6],0.733 ± 0.029 S/m
same,electrical conductivity,[7],0.835 ± 0.033 S/m
CCCC[n+]1ccn(C)c1.O=S(=O)([N-]S(=O)(=O)C(F)(F)F)C(F)(F)F + CC1CCC(=O)O1,electrical conductivity,[1],0.337 ± 0.013 S/m
same,electrical conductivity,[2],0.4 ± 0.016 S/m
same,electrical conductivity,[3],0.472 ± 0.019 S/m
same,electrical conductivity,[4],0.552 ± 0.022 S/m
same,electrical conductivity,[5],0.64 ± 0.026 S/m
same,electrical conductivity,[6],0.733 ± 0.029 S/m
same,electrical conductivity,[7],0.835 ± 0.033 S/m
CCCC[n+]1ccn(C)c1.O=S(=O)([N-]S(=O)(=O)C(F)(F)F)C(F)(F)F + CC1COC(=O)O1,viscosity,"288.15 K, 101.3 kPa, x1 = 1",80.3 ± 1.7 mPa·s
same,viscosity,"308.15 K, 101.3 kPa, x1 = 1",33.95 ± 0.71 mPa·s
same,viscosity,"328.15 K, 101.3 kPa, x1 = 1",17.98 ± 0.38 mPa·s
CC[N+](CC)(CC)CC.F[B-](F)(F)F + CC1COC(=O)O1,viscosity,"283.15 K, 101 kPa, x1 = 0.001044",3.574 ± 0.052 mPa·s
same,viscosity,"283.15 K, 101 kPa, x1 = 0.001302",3.581 ± 0.052 mPa·s
same,viscosity,"283.15 K, 101 kPa, x1 = 0.001888",3.591 ± 0.052 mPa·s
same,viscosity,"283.15 K, 101 kPa, x1 = 0.003069",3.625 ± 0.052 mPa·s
same,viscosity,"283.15 K, 101 kPa, x1 = 0.003925",3.642 ± 0.053 mPa·s
same,viscosity,"283.15 K, 101 kPa, x1 = 0.005619",3.663 ± 0.053 mPa·s
same,viscosity,"283.15 K, 101 kPa, x1 = 0.007445",3.702 ± 0.054 mPa·s
same,viscosity,"283.15 K, 101 kPa, x1 = 0.009039",3.739 ± 0.054 mPa·s
same,viscosity,"283.15 K, 101 kPa, x1 = 0.01054",3.769 ± 0.054 mPa·s
same,viscosity,"283.15 K, 101 kPa, x1 = 0.01391",3.835 ± 0.055 mPa·s
same,viscosity,"283.15 K, 101 kPa, x2 = 0.9206",5.439 ± 0.076 mPa·s
same,viscosity,"283.15 K, 101 kPa, x2 = 0.9274",5.243 ± 0.074 mPa·s
same,viscosity,"283.15 K, 101 kPa, x2 = 0.9419",4.842 ± 0.069 mPa·s
same,viscosity,"283.15 K, 101 kPa, x2 = 0.9434",4.813 ± 0.069 mPa·s
same,viscosity,"283.15 K, 101 kPa, x2 = 0.9551",4.515 ± 0.065 mPa·s
same,viscosity,"283.15 K, 101 kPa, x2 = 0.9624",4.356 ± 0.062 mPa·s
same,viscosity,"283.15 K, 101 kPa, x2 = 0.9701",4.177 ± 0.06 mPa·s
same,viscosity,"298.15 K, 101 kPa, x1 = 0.001682",2.557 ± 0.038 mPa·s
same,viscosity,"298.15 K, 101 kPa, x1 = 0.003455",2.58 ± 0.038 mPa·s
same,viscosity,"298.15 K, 101 kPa, x1 = 0.004813",2.598 ± 0.038 mPa·s
same,viscosity,"298.15 K, 101 kPa, x1 = 0.006017",2.613 ± 0.039 mPa·s
same,viscosity,"298.15 K, 101 kPa, x1 = 0.007139",2.628 ± 0.039 mPa·s
same,viscosity,"298.15 K, 101 kPa, x1 = 0.008167",2.641 ± 0.039 mPa·s
same,viscosity,"298.15 K, 101 kPa, x1 = 0.009079",2.657 ± 0.039 mPa·s
same,viscosity,"298.15 K, 101 kPa, x1 = 0.01102",2.68 ± 0.04 mPa·s
same,viscosity,"298.15 K, 101 kPa, x1 = 0.01252",2.701 ± 0.04 mPa·s
same,viscosity,"298.15 K, 101 kPa, x1 = 0.01813",2.774 ± 0.041 mPa·s
same,viscosity,"298.15 K, 101 kPa, x2 = 0.9206",3.716 ± 0.054 mPa·s
same,viscosity,"298.15 K, 101 kPa, x2 = 0.9283",3.58 ± 0.052 mPa·s
same,viscosity,"298.15 K, 101 kPa, x2 = 0.9528",3.189 ± 0.047 mPa·s
same,viscosity,"298.15 K, 101 kPa, x2 = 0.971",2.924 ± 0.043 mPa·s
same,viscosity,"308.15 K, 101 kPa, x1 = 0.001119",2.101 ± 0.032 mPa·s
same,viscosity,"308.15 K, 101 kPa, x1 = 0.003553",2.127 ± 0.032 mPa·s
same,viscosity,"308.15 K, 101 kPa, x1 = 0.005754",2.15 ± 0.032 mPa·s
same,viscosity,"308.15 K, 101 kPa, x1 = 0.006805",2.161 ± 0.032 mPa·s
same,viscosity,"308.15 K, 101 kPa, x1 = 0.007615",2.17 ± 0.032 mPa·s
same,viscosity,"308.15 K, 101 kPa, x1 = 0.008953",2.182 ± 0.033 mPa·s
same,viscosity,"308.15 K, 101 kPa, x1 = 0.01146",2.209 ± 0.033 mPa·s
same,viscosity,"308.15 K, 101 kPa, x1 = 0.01324",2.228 ± 0.033 mPa·s
same,viscosity,"308.15 K, 101 kPa, x2 = 0.9174",3.043 ± 0.045 mPa·s
same,viscosity,"308.15 K, 101 kPa, x2 = 0.9215",2.977 ± 0.044 mPa·s
same,viscosity,"308.15 K, 101 kPa, x2 = 0.9382",2.775 ± 0.041 mPa·s
same,viscosity,"308.15 K, 101 kPa, x2 = 0.9417",2.728 ± 0.04 mPa·s
same,viscosity,"308.15 K, 101 kPa, x2 = 0.9539",2.586 ± 0.038 mPa·s
same,viscosity,"308.15 K, 101 kPa, x2 = 0.9711",2.396 ± 0.036 mPa·s
same,viscosity,"308.15 K, 101 kPa, x2 = 0.9798",2.303 ± 0.034 mPa·s
same,viscosity,"313.15 K, 101 kPa, x1 = 0.00395",1.953 ± 0.029 mPa·s
same,viscosity,"313.15 K, 101 kPa, x1 = 0.004693",1.963 ± 0.03 mPa·s
same,viscosity,"313.15 K, 101 kPa, x1 = 0.005951",1.972 ± 0.03 mPa·s
same,viscosity,"313.15 K, 101 kPa, x1 = 0.00774",1.988 ± 0.03 mPa·s
same,viscosity,"313.15 K, 101 kPa, x1 = 0.009433",2.003 ± 0.03 mPa·s
same,viscosity,"313.15 K, 101 kPa, x1 = 0.01082",2.018 ± 0.03 mPa·s
same,viscosity,"313.15 K, 101 kPa, x2 = 0.9272",2.638 ± 0.039 mPa·s
same,viscosity,"313.15 K, 101 kPa, x2 = 0.9371",2.531 ± 0.037 mPa·s
same,viscosity,"313.15 K, 101 kPa, x2 = 0.9469",2.429 ± 0.036 mPa·s
same,viscosity,"313.15 K, 101 kPa, x2 = 0.9574",2.325 ± 0.035 mPa·s
same,viscosity,"313.15 K, 101 kPa, x2 = 0.9712",2.185 ± 0.033 mPa·s
same,viscosity,"313.15 K, 101 kPa, x2 = 0.9797",2.106 ± 0.032 mPa·s
CCCC[n+]1ccn(C)c1.F[P-](F)(F)(F)(F)F + CC#N,electrical conductivity,"298.15 K, 101 kPa, x2 = 0",0.157 ± 0.019 S/m
same,viscosity,"298.15 K, 101 kPa, x2 = 0",260 mPa·s
same,electrical conductivity,"298.15 K, 101 kPa, x2 = 0.099",0.245 ± 0.029 S/m
same,viscosity,"298.15 K, 101 kPa, x2 = 0.099",153 ± 70 mPa·s
same,electrical conductivity,"298.15 K, 101 kPa, x2 = 0.1938",0.374 ± 0.045 S/m
same,viscosity,"298.15 K, 101 kPa, x2 = 0.1938",93 ± 24 mPa·s
same,viscosity,"298.15 K, 101 kPa, x2 = 0.1945",86 ± 13 mPa·s
same,electrical conductivity,"298.15 K, 101 kPa, x2 = 0.2936",0.552 ± 0.066 S/m
same,viscosity,"298.15 K, 101 kPa, x2 = 0.2936",53.6 ± 2.2 mPa·s
same,electrical conductivity,"298.15 K, 101 kPa, x2 = 0.3885",0.84 ± 0.1 S/m
same,viscosity,"298.15 K, 101 kPa, x2 = 0.3885",31.3 ± 3.1 mPa·s
same,electrical conductivity,"298.15 K, 101 kPa, x2 = 0.4978",1.3 ± 0.16 S/m
same,viscosity,"298.15 K, 101 kPa, x2 = 0.4978",16.2 ± 1.7 mPa·s
same,electrical conductivity,"298.15 K, 101 kPa, x2 = 0.5896",1.84 ± 0.22 S/m
same,viscosity,"298.15 K, 101 kPa, x2 = 0.5896",8.8 ± 1 mPa·s
same,electrical conductivity,"298.15 K, 101 kPa, x2 = 0.6994",2.71 ± 0.33 S/m
same,viscosity,"298.15 K, 101 kPa, x2 = 0.6994",4.18 ± 0.55 mPa·s
same,electrical conductivity,"298.15 K, 101 kPa, x2 = 0.7855",3.46 ± 0.42 S/m
same,viscosity,"298.15 K, 101 kPa, x2 = 0.7855",2.27 ± 0.31 mPa·s
same,electrical conductivity,"298.15 K, 101 kPa, x2 = 0.846",3.93 ± 0.47 S/m
same,viscosity,"298.15 K, 101 kPa, x2 = 0.846",1.48 ± 0.21 mPa·s
same,electrical conductivity,"298.15 K, 101 kPa, x2 = 0.8918",4.18 ± 0.5 S/m
same,viscosity,"298.15 K, 101 kPa, x2 = 0.8918",1.08 ± 0.16 mPa·s
CCCC[n+]1ccn(C)c1.O=S(=O)([N-]S(=O)(=O)C(F)(F)F)C(F)(F)F + CC#N,electrical conductivity,"294.5 K, 100 kPa, x1 = 0.01076",1.58 ± 0.16 S/m
same,electrical conductivity,"298 K, 101 kPa, x1 = 0.0063",1.14 ± 0.1 S/m
same,viscosity,"298 K, 101 kPa, x2 = 0",50.4 ± 1.9 mPa·s
same,viscosity,"298 K, 101 kPa, x2 = 0.1534",34.4 ± 1.9 mPa·s
same,viscosity,"298 K, 101 kPa, x2 = 0.2508",25.4 ± 1.4 mPa·s
same,viscosity,"298 K, 101 kPa, x2 = 0.602",6.4 ± 0.3 mPa·s
same,electrical conductivity,"298 K, 101 kPa, x2 = 0.661",2.25 ± 0.1 S/m
same,viscosity,"298 K, 101 kPa, x2 = 0.7518",2.73 ± 0.14 mPa·s
same,electrical conductivity,"298 K, 101 kPa, x2 = 0.905",4.42 ± 0.18 S/m
